Source: PubChem BioAssay AID504484 (Southern Research Specialized Biocontainment Screening …, 2011)

Tested on: human PBMC HIV-1 replication, RT activity in supernatant
Assay: antiviral activity against X4-tropic HIV-1 in PBMC – cell-based, CXCR4-tropic HIV-1, primary PBMCs, dose response (AID 504484)

**Q.** With `COc1ccc(CCn2c(O)cc3nn(-c4nc5ccccc5s4)c(=O)c-3c2C)cc1` as the compound, how does the IC50 read?
**A.** 5.45 µM

**Q.** `COc1ccccc1Cn1c(O)cc2nn(-c3nc4ccccc4s3)c(=O)c-2c1C` was tested. Which IC50 did it give?
**A.** 4.42 µM

**Q.** How did the IC50 turn out when `Cc1c2c(=O)n(-c3nc4ccccc4s3)nc-2cc(O)n1Cc1cccs1` was run?
**A.** 11.5 µM

**Q.** Which IC50 does the source give for `Cc1c2c(=O)n(-c3nc4ccccc4s3)nc-2cc(O)n1C1CC1` here?
**A.** 3.35 µM

**Q.** `Cc1c2c(=O)n(-c3nc4ccccc4s3)nc-2cc(O)n1CCC(C)C` was tested. Which IC50 did it give?
**A.** 5.68 µM

**Q.** How did the IC50 turn out when `Cc1c2c(=O)n(-c3nc4ccccc4s3)nc-2cc(O)n1Cc1ccncc1` was run?
**A.** 1.81 µM

**Q.** Which IC50 does the source give for `Cc1c2c(=O)n(-c3nc4ccccc4s3)nc-2cc(O)n1Cc1ccc(F)cc1` here?
**A.** 7.48 µM

**Q.** With `Cc1c2c(=O)n(-c3nc4ccccc4s3)nc-2cc(O)n1Cc1cccnc1` as the compound, how does the IC50 read?
**A.** 2.86 µM

**Q.** How did the IC50 turn out when `Cc1c2c(=O)n(-c3nc4ccccc4s3)nc-2cc(O)n1CCc1cccs1` was run?
**A.** 28.7 µM

**Q.** How did the IC50 turn out when `Cc1c2c(=O)n(-c3nc4ccccc4s3)nc-2cc(O)n1Cc1ccccc1Cl` was run?
**A.** 7.44 µM

**Q.** How did the IC50 turn out when `COc1ccc(Cn2c(O)cc3nn(-c4nc5ccccc5s4)c(=O)c-3c2C)cc1` was run?
**A.** 7.71 µM

**Q.** With `Cc1c2c(=O)n(-c3nc4ccccc4s3)nc-2cc(O)n1CCc1ccc(O)cc1` as the compound, how does the IC50 read?
**A.** 1.32 µM
